According to ChEMBL document CHEMBL1140860, “Synthesis and evaluation of dihydroartemisinin and dihydroartemisitene acetal dimers showing anticancer and antiprotozoal activity” (Bioorg Med Chem, 2009):

Legend:
[1] = tested on: BT-549; assay: Growth inhibition of human BT549 cells after 48 hrs by sulforhodamine B assay; assay type: functional; conditions: BT-549, 48 h
[2] = tested on: SNB-19; assay: Growth inhibition of human SNB19 cells after 48 hrs by sulforhodamine B assay; assay type: functional; conditions: SNB-19, 48 h
[3] = tested on: HOP-92; assay: Growth inhibition of human HOP92 cells after 48 hrs by sulforhodamine B assay; assay type: functional; conditions: HOP-92, 48 h
[4] = tested on: NCI-H23; assay: Growth inhibition of human NCI-H23 cells after 48 hrs by sulforhodamine B assay; assay type: functional; conditions: NCI-H23, 48 h
[5] = Selectivity index, ratio of TC50 for african green monkey (Cercopithecus aethiops) Vero cells to IC50 for chloroquine-resistant Plasmodium falciparum W2; assay type: toxicity, cell-based
[6] = tested on: 786-0; assay: Growth inhibition of human 786-0 cells after 48 hrs by sulforhodamine B assay; assay type: functional; conditions: 786-0, 48 h
[7] = tested on: ACHN; assay: Growth inhibition of human ACHN cells after 48 hrs by sulforhodamine B assay; assay type: functional
[8] = tested on: UACC-257; assay: Growth inhibition of human UACC257 cells after 48 hrs by sulforhodamine B assay; assay type: functional; conditions: UACC-257, 48 h
[9] = tested on: HOP-62; assay: Growth inhibition of human HOP62 cells after 48 hrs by sulforhodamine B assay; assay type: functional; conditions: HOP-62, 48 h
[10] = tested on: Plasmodium falciparum; assay: Antimalarial activity after 72 hrs against chloroquine-sensitive Plasmodium falciparum D6 infected in erythrocytes by LDH assay; assay type: functional, organism-based; conditions: D6, 72 h
[11] = tested on: IGROV-1; assay: Growth inhibition of human IGROV1 cells after 48 hrs by sulforhodamine B assay; assay type: functional; conditions: IGROV-1, 48 h
[12] = tested on: MDA-N; assay: Growth inhibition of human MDA-N cells after 48 hrs by sulforhodamine B assay; assay type: functional
[13] = tested on: SW-620; assay: Growth inhibition of human SW620 cells after 48 hrs by sulforhodamine B assay; assay type: functional; conditions: SW-620, 48 h
[14] = tested on: OVCAR-3; assay: Growth inhibition of human OVCAR-3 cells after 48 hrs by sulforhodamine B assay; assay type: functional; conditions: OVCAR-3, 48 h
[15] = tested on: TK-10; assay: Growth inhibition of human TK10 cells after 48 hrs by sulforhodamine B assay; assay type: functional; conditions: TK-10, 48 h
[16] = tested on: DU-145; assay: Growth inhibition of human DU145 cells after 48 hrs by sulforhodamine B assay; assay type: functional; conditions: DU-145, 48 h
[17] = tested on: SK-MEL-2; assay: Growth inhibition of human SK-MEL-2 cells after 48 hrs by sulforhodamine B assay; assay type: functional; conditions: SK-MEL-2, 48 h
[18] = tested on: T47D; assay: Growth inhibition of human T47D cells after 48 hrs by sulforhodamine B assay; assay type: functional
[19] = tested on: A549; assay: Growth inhibition of human A549 cells after 48 hrs by sulforhodamine B assay; assay type: functional; conditions: A549, 48 h
[20] = tested on: SK-MEL-5; assay: Growth inhibition of human SK-MEL-5 cells after 48 hrs by sulforhodamine B assay; assay type: functional; conditions: SK-MEL-5, 48 h
[21] = tested on: EKVX; assay: Growth inhibition of human EKVX cells after 48 hrs by sulforhodamine B assay; assay type: functional
[22] = tested on: RXF 393; assay: Growth inhibition of human RXF393 cells after 48 hrs by sulforhodamine B assay; assay type: functional; conditions: RXF 393, 48 h
[23] = tested on: K562; assay: Growth inhibition of human K562 cells after 48 hrs by sulforhodamine B assay; assay type: functional; conditions: K562, 48 h
[24] = tested on: SN12C; assay: Growth inhibition of human SN12C cells after 48 hrs by sulforhodamine B assay; assay type: functional
[25] = tested on: NCI-H226; assay: Growth inhibition of human NCI-H226 cells after 48 hrs by sulforhodamine B assay; assay type: functional; conditions: NCI-H226, 48 h
[26] = tested on: NCI/ADR-RES; assay: Growth inhibition of human NCI/ADR-RES cells after 48 hrs by sulforhodamine B assay; assay type: functional
[27] = tested on: SF-295; assay: Growth inhibition of human SF295 cells after 48 hrs by sulforhodamine B assay; assay type: functional; conditions: SF-295, 48 h
[28] = tested on: SNB-75; assay: Growth inhibition of human SNB75 cells after 48 hrs by sulforhodamine B assay; assay type: functional; conditions: SNB-75, 48 h
[29] = tested on: HCT-116; assay: Growth inhibition of human HCT116 cells after 48 hrs by sulforhodamine B assay; assay type: functional; conditions: HCT-116, 48 h
[30] = tested on: M14; assay: Growth inhibition of human M14 cells after 48 hrs by sulforhodamine B assay; assay type: functional; conditions: M14, 48 h
[31] = tested on: CCRF-CEM; assay: Growth inhibition of human CCRF-CEM cells after 48 hrs by sulforhodamine B assay; assay type: functional
[32] = tested on: U-251; assay: Growth inhibition of human U251 cells after 48 hrs by sulforhodamine B assay; assay type: functional; conditions: U-251, 48 h
[33] = tested on: A498; assay: Growth inhibition of human A498 cells after 48 hrs by sulforhodamine B assay; assay type: functional; conditions: A498, 48 h
[34] = tested on: MDA-MB-435; assay: Growth inhibition of human MDA-MB-435 cells after 48 hrs by sulforhodamine B assay; assay type: functional; conditions: MDA-MB-435, 48 h
[35] = tested on: Malme-3M; assay: Growth inhibition of human MALME-3M cells after 48 hrs by sulforhodamine B assay; assay type: functional
[36] = Growth inhibition of human […] cells after 48 hrs by sulforhodamine B assay; assay type: functional
[37] = tested on: NCI-H322M; assay: Growth inhibition of human NCI-H322M cells after 48 hrs by sulforhodamine B assay; assay type: functional
[38] = tested on: SK-OV-3; assay: Growth inhibition of human SKOV3 cells after 48 hrs by sulforhodamine B assay; assay type: functional; conditions: SK-OV-3, 48 h
[39] = tested on: NCI-H522; assay: Growth inhibition of human NCI-H522 cells after 48 hrs by sulforhodamine B assay; assay type: functional; conditions: NCI-H522, 48 h
[40] = tested on: HCT-15; assay: Growth inhibition of human HCT15 cells after 48 hrs by sulforhodamine B assay; assay type: functional; conditions: HCT-15, 48 h
[41] = tested on: OVCAR-8; assay: Growth inhibition of human OVCAR8 cells after 48 hrs by sulforhodamine B assay; assay type: functional; conditions: OVCAR-8, 48 h
[42] = tested on: SF-268; assay: Growth inhibition of human SF268 cells after 48 hrs by sulforhodamine B assay; assay type: functional; conditions: SF-268, 48 h
[43] = tested on: MDA-MB-231; assay: Growth inhibition of human MDA-MB-231 cells after 48 hrs by sulforhodamine B assay; assay type: functional; conditions: MDA-MB-231, 48 h
[44] = Selectivity index, ratio of TC50 for african green monkey (Cercopithecus aethiops) Vero cells to IC50 for chloroquine-sensitive Plasmodium falciparum D6; assay type: toxicity, cell-based
[45] = tested on: KM12; assay: Growth inhibition of human KM12 cells after 48 hrs by sulforhodamine B assay; assay type: functional; conditions: KM12, 48 h
[46] = Growth inhibition of human Hs 578T cells after 48 hrs by sulforhodamine B assay; assay type: functional
[47] = tested on: SF-539; assay: Growth inhibition of human SF539 cells after 48 hrs by sulforhodamine B assay; assay type: functional; conditions: SF-539, 48 h
[48] = tested on: COLO 205; assay: Growth inhibition of human COLO205 cells after 48 hrs by sulforhodamine B assay; assay type: functional; conditions: COLO 205, 48 h
[49] = tested on: MOLT-4; assay: Growth inhibition of human MOLT4 cells after 48 hrs by sulforhodamine B assay; assay type: functional; conditions: MOLT-4, 48 h
[50] = tested on: OVCAR-5; assay: Growth inhibition of human OVCAR5 cells after 48 hrs by sulforhodamine B assay; assay type: functional; conditions: OVCAR-5, 48 h
[51] = tested on: MCF7; assay: Growth inhibition of human MCF7 cells after 48 hrs by sulforhodamine B assay; assay type: functional; conditions: MCF7, 48 h
[52] = tested on: SK-MEL-28; assay: Growth inhibition of human SK-MEL-28 cells after 48 hrs by sulforhodamine B assay; assay type: functional; conditions: SK-MEL-28, 48 h
[53] = tested on: PC-3; assay: Growth inhibition of human PC3 cells after 48 hrs by sulforhodamine B assay; assay type: functional; conditions: PC-3, 48 h
[54] = tested on: OVCAR-4; assay: Growth inhibition of human OVCAR4 cells after 48 hrs by sulforhodamine B assay; assay type: functional; conditions: OVCAR-4, 48 h
[55] = tested on: HCC 2998; assay: Growth inhibition of human HCC2998 cells after 48 hrs by sulforhodamine B assay; assay type: functional; conditions: HCC 2998, 48 h
[56] = Cytotoxicity against african green monkey Vero cells after 48 hrs by neutral red assay; assay type: cell-based; conditions: chlorocebus sabaeus, read-out: TC50
[57] = tested on: Plasmodium falciparum; assay: Antimalarial activity after 72 hrs against chloroquine-resistant Plasmodium falciparum W2 infected erythrocytes by LDH assay; assay type: functional, organism-based; conditions: W2, 72 h
[58] = tested on: SR; assay: Growth inhibition of human SR cells after 48 hrs by sulforhodamine B assay; assay type: functional
[59] = tested on: HT-29; assay: Growth inhibition of human HT-29 cells after 48 hrs by sulforhodamine B assay; assay type: functional; conditions: HT-29, 48 h
[60] = tested on: NCI-H460; assay: Growth inhibition of human NCI-H460 cells after 48 hrs by sulforhodamine B assay; assay type: functional; conditions: NCI-H460, 48 h
[61] = tested on: LOX IMVI; assay: Growth inhibition of human LOXIMVI cells after 48 hrs by sulforhodamine B assay; assay type: functional
[62] = tested on: CAKI-1; assay: Growth inhibition of human Caki1 cells after 48 hrs by sulforhodamine B assay; assay type: functional; conditions: CAKI-1, 48 h
[63] = tested on: UACC-62; assay: Growth inhibition of human UACC62 cells after 48 hrs by sulforhodamine B assay; assay type: functional; conditions: UACC-62, 48 h
[64] = tested on: HUVEC; assay: Antiangiogenic activity against HUVEC assessed as inhibition of VEGF-induced cell migration by NCI antiangiogenesis assay; assay type: functional, cell-based; conditions: Homo sapiens
[65] = tested on: HUVEC; assay: Antiangiogenic activity against HUVEC assessed as inhibition of capillary-like structure formation by NCI antiangiogenesis assay; assay type: functional, cell-based; conditions: Homo sapiens
[66] = tested on: HUVEC; assay: Antiangiogenic activity against HUVEC assessed as growth inhibition by NCI antiangiogenesis assay; assay type: functional, cell-based; conditions: Homo sapiens

With C[C@H]1[C@@H](OCCCO[C@H]2O[C@@H]3O[C@@]4(C)CC[C@H]5[C@H](C)CC[C@@H]([C@H]2C)[C@@]35OO4)O[C@@H]2O[C@@]3(C)CC[C@H]4[C@H](C)CC[C@@H]1[C@@]24OO3 the GI50 [1] was 2.79 µM, the GI50 [2] was > 100 µM and the GI50 [3] was > 100 µM. For the same compound, the GI50 [4] was > 100 µM, the selectivity ratio [5] was 35 and the GI50 [6] was 1.41 µM. The GI50 [7] was 1.47 µM, the GI50 [8] was > 100 µM and the GI50 [9] was > 100 µM. It also gave an IC50 [10] of 14 µM, a GI50 [11] of 7.68 µM and a GI50 [12] of 1.58 µM. For the same compound, the GI50 [13] was 0.522 µM, the GI50 [14] was > 100 µM and the GI50 [15] was 2.41 µM. For the same compound, the GI50 [16] was 100 µM, the GI50 [17] was > 100 µM and the GI50 [18] was 0.497 µM. The GI50 [19] was 28.7 µM, the GI50 [20] was 30.5 µM and the GI50 [21] was 5.49 µM. For the same compound, the GI50 [22] was 8 µM, the GI50 [23] was > 100 µM and the GI50 [24] was 4.03 µM. The GI50 [25] was > 100 µM, the GI50 [26] was 3.64 µM and the GI50 [27] was > 100 µM. The GI50 [28] was > 100 µM, the GI50 [29] was 0.545 µM and the GI50 [30] was > 100 µM. For the same compound, the GI50 [31] was 1.31 µM, the GI50 [32] was > 100 µM and the GI50 [33] was 14.7 µM. The GI50 [34] was 0.694 µM, the GI50 [35] was > 100 µM and the GI50 [36] was 4.45 µM. The GI50 [37] was > 100 µM, the GI50 [38] was > 100 µM and the GI50 [39] was 7.13 µM. For the same compound, the GI50 [40] was 0.403 µM, the GI50 [41] was > 100 µM and the GI50 [42] was > 100 µM. The GI50 [43] was 7.34 µM, the selectivity ratio [44] was > 21 and the GI50 [45] was 0.517 µM. For the same compound, the GI50 [46] was 0.62 µM, the GI50 [47] was > 100 µM and the GI50 [48] was 0.45 µM. The GI50 [49] was 5.95 µM, the GI50 [50] was > 100 µM and the GI50 [51] was 0.652 µM. For the same compound, the GI50 [52] was > 100 µM, the GI50 [53] was 3.08 µM and the GI50 [54] was > 100 µM. The GI50 [55] was 9.65 µM, the CC50 at 48 h [56] was 296 µM and the IC50 [57] was 8.5 µM. The GI50 [58] was 1.98 µM, the GI50 [59] was 0.522 µM and the GI50 [60] was 31.2 µM. For the same compound, the GI50 [61] was > 100 µM, the GI50 [62] was 6.95 µM and the GI50 [63] was 17.9 µM.

For CC(=O)O[C@H]1C(=O)[C@@]2(C)[C@H]([C@H](OC(=O)c3ccccc3)[C@]3(O)C[C@H](OC(=O)[C@H](O)[C@@H](NC(=O)c4ccccc4)c4ccccc4)C(C)=C1C3(C)C)[C@]1(OC(C)=O)CO[C@@H]1C[C@@H]2O [PACLITAXEL], the IC50 [64] was 0.1 µM, the IC50 [65] was 0.05 µM and the IC50 [66] was 1.65 µM.
